# Measurements reported in the supplement of paper PMC10307832.
# Compound: C1CN(CCC1C(C2=CC3=C(C=C2)OCO3)(C4=CC5=C(C=C4)OCO5)O)C(=O)OC6=CC=C(C=C6)[N+](=O)[O-] [JZL-184] + CCNC(=O)c1noc(-c2cc(C(C)C)c(O)cc2O)c1-c1ccc(CN2CCOCC2)cc1 [Luminespib] (partner 0.01 µM)
# Assay: relative viability (nuclei count vs DMSO), 5 days (fraction); higher = more cells survive
# How it was run: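 Lung cancer cell lines were seeded in 1536-well plates and dosed by pin tool the next day, with either a single drug or a fixed anchor-drug dose combined with five library-drug doses (not always all listed) spaced in √10 steps. Five days later, one step fixed the cells and stained their nuclei (final 0.05% Triton X-100, 1% formaldehyde, 1 ug/ml Hoechst), and nuclei were counted on 4× images. Relative viability is the nuclei count in treated wells divided by the count in vehicle wells, and each value is the median of duplicate plates.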
Cell Line,relative viability (first compound 0.04 µM),relative viability (first compound 0.4 µM),relative viability (first compound 1.265 µM),relative viability (first compound 4 µM)
NCI-H647,0.286,0.128,0.0998,0.216
NCI-H2009,1.1,0.917,1.08,1.02
EPLC-272H,0.242,0.241,0.886,0.84
NCI-H520,0.222,0.226,0.239,0.209
NCI-H2405,0.598,0.764,0.796,0.734
NCI-H2085,0.327,0.454,0.46,0.443
NCI-H322M,0.91,0.797,0.889,0.705
NCI-H1944,0.615,0.682,0.766,0.754
LC-2-ad,1.27,0.891,1.11,1.03
NCI-H358,0.387,0.279,0.308,0.304
NCI-H2170,0.712,0.651,0.762,0.491
NCI-H2342,0.687,0.61,0.683,0.783
SW 900,0.16,0.18,0.18,0.196
A-427,1.14,0.79,1.11,0.972
NCI-H1666,1.13,1.02,0.999,0.912
LOU-NH91,0.26,0.322,0.32,0.387
ABC-1,1.23,0.557,0.628,0.495
NCI-H1651,0.894,0.797,0.902,0.765
201T,1.05,1.05,1.04,1.03
NCI-H3122,0.0989,0.0869,0.0901,0.11
NCI-H727,0.343,0.286,0.375,0.355
NCI-H441,0.442,0.325,0.365,0.347
HOP-62,1.03,0.968,0.902,0.957
RERF-LC-KJ,1.34,1.37,1.31,1.2

Cell Line,relative viability (first compound 0.04 µM),relative viability (first compound 0.4 µM),relative viability (first compound 1.265 µM),relative viability (first compound 4 µM)
HCC-44,1.59,0.973,1.09,1.09
LCLC-103H,1.04,0.829,0.835,0.866
NCI-H1915,0.913,0.682,0.8,0.718
ChaGo-K-1,0.592,0.591,0.623,0.598
PC-14,0.119,0.137,0.146,0.287
SK-LU-1,0.312,0.201,0.215,0.2
NCI-H1437,1.19,1.14,0.947,1.08
NCI-H1734,0.207,0.206,0.185,0.222
LK-2,0.217,0.194,0.203,0.17
HCC-15,0.421,0.294,0.343,0.339
NCI-H650,0.854,0.647,0.802,0.806
NCI-H2347,0.321,0.553,0.497,0.587
LXF-289,0.917,0.57,0.693,0.618
BEN,0.421,0.318,0.67,0.281
NCI-H2023,0.958,0.624,0.918,0.575
NCI-H661,0.969,0.898,0.938,0.975
NCI-H1355,0.713,0.705,0.828,0.69
NCI-H1793,0.162,0.165,0.153,0.156
COR-L 105,0.899,0.818,0.901,0.741
NCI-H2228,0.142,0.1,0.168,0.122
NCI-H838,0.287,0.281,0.274,0.258
EMC-BAC-2,1.26,1.11,1.24,1.09
LU99A,0.279,0.224,0.283,0.321
PC-3 [JPC-3],0.793,0.721,0.811,0.615

Cell Line,relative viability (first compound 0.04 µM),relative viability (first compound 0.4 µM),relative viability (first compound 1.265 µM),relative viability (first compound 4 µM)
NCI-H596,1.23,1.13,0.996,1.09
LCLC-97TM1,0.812,0.66,0.828,0.653
NCI-H1993,0.846,0.745,0.885,0.968
HARA,0.808,0.739,1.03,0.757
NCI-H460,0.0429,0.0344,0.0404,0.0362
NCI-H1650,0.225,0.207,0.216,0.178
EKVX,0.795,0.71,0.944,0.863
NCI-H1755,0.598,0.418,0.26,0.405
NCI-H1395,0.63,0.788,0.675,0.738
NCI-H1792,0.401,0.383,0.56,0.408
NCI-H2087,0.167,0.134,0.157,0.209
H3255,1.03,0.765,1,0.938
SK-MES-1,0.913,0.765,0.874,0.726
NCI-H23,0.21,,0.194,0.21
HCC-827,0.804,0.587,0.91,0.671
UMC-11,1.26,0.992,1.05,1.04
NCI-H1975,0.275,0.292,0.265,0.168
NCI-H1563,0.513,0.571,0.535,0.511
COR-L23,0.776,0.7,0.781,0.642
CAL-12T,0.478,0.449,0.849,0.395
SW 1573,0.224,0.276,0.251,0.222
NCI-H2126,1.06,0.876,0.922,0.92
